According to a melting point compilation (Tetko et al.; mined from patent text by program, amines drawn as free bases though some values may be those of a salt):

| melting point | Structure (SMILES) |
| --- | --- |
| 290 to 305 °C | CCOC(=O)c1cc2c(cn1)[nH]c1ccc(C(C)=O)cc12 |
| 286 to 287 °C | O=c1[nH]c2cnc(-c3ccccc3)nc2n1Cc1ccccc1 |
| 105 to 107 °C | CCCCC1(CCCC)CS(=O)(=O)c2ccc(N(C)C)cc2[C@@H](c2ccc(OCc3cccc(CCC(=O)O)n3)cc2)[C@H]1O |
| 128 to 130 °C | CN1CCC(Oc2cc3ccccc3cc2C(N)=O)C1 (stereo not drawn) |
| 176 °C | O=Cc1c2ccccc2c(Cl)c2ccc(Cl)cc12 |
| 142 to 143 °C | COc1ccc(-c2nn(Cc3ccncc3)c(=O)cc2-c2ccc(Cl)cc2)cc1 |
| > 250 °C | O=C1Nc2ccccc2C12COc1c2ccc2c1OCCO2 (stereo not drawn) |
| 237 to 241 °C | O=C(O)CCCCOc1ccc(N2CCN(c3ccncc3)CC2)cc1 |
| 185 to 186 °C | CCOC(=O)c1cn(CC)c2nc(-c3ccncc3)c(F)cc2c1=O |
| 139 °C | Cc1cc(CSc2cccc(OCc3cccc4ccccc34)c2)oc(=O)c1 |
| 259 to 261 °C | CC(=O)c1cc(C#N)c(=O)[nH]c1-c1ccccc1 |
| 170 to 172 °C | COc1ccc2c(c1)C(=O)C(=Cc1ccncc1)CO2 |
| 147 to 148 °C | Cc1oc(C=Cc2cccc(Cl)c2)nc1CO |
| 144 to 146 °C | COC(=O)c1ccc(-c2ccc(-c3ccccc3)c(-c3ccc4c(c3)C(C)(C)CCC4(C)C)c2)c(OC)c1 |
| 220 °C | CCOC(=O)c1c(-c2ccc(O)cc2)nc2ccccn12 |
| 196 to 198 °C | Cc1cc(OC/C=C/c2ccc(F)cc2)c(C)c(C)c1NC=O |
| 191 to 192 °C | O=Cc1cn(-c2ccccn2)nc1-c1ccc([N+](=O)[O-])o1 |
| 198 to 201 °C | Cc1cccc(-n2c(-c3sc(Nc4ccccc4)nc3C)nc3ccccc3c2=O)c1 |
| 38 °C | CC1(C)Oc2ccccc2-n2cccc21 |
| 71.5 °C | COc1ccc(C2=C(C(=O)N3CCOCC3)C(=O)c3ccccc32)cc1OC |
| 187 to 188 °C | NS(=O)(=O)c1ccc(-c2ccccc2-c2ccc(F)cc2)cc1 |
| > 300 °C | O=C(O)c1ccc(-c2cc3ccccc3[nH]c2=S)cc1 |
| 113 to 115 °C | Cc1ccc(Oc2c(F)cc(C(F)(F)F)cc2Cl)cc1[N+](=O)[O-] |
| 94 to 96 °C | CCCCc1oc2ccccc2c1C(O)c1ccc(O)cc1 (stereo not drawn) |

| melting point | Structure (SMILES) |
| --- | --- |
| 132 to 133 °C | COc1cc2c(cc1OC)-c1c(Cl)nc3ccccc3c1C2=O |
| 213 to 214 °C | CC(=O)O[C@@H](C)C(=O)Nc1c(C(=O)c2cc(C)ccn2)[nH]c2cc(Cl)ccc12 |
| 138 to 142 °C | CCOCCOc1ccc(-c2ccc3c(c2)C=C(C(=O)OC)CCN3C=O)cc1 |
| 75 to 77 °C | Cc1ccc(CNc2nc(Nc3cccc(N)c3)nc(OCC(F)(F)F)n2)o1 |
| 92 to 100 °C | Cc1ccc(S(=O)(=O)Nc2ccccc2C(=O)C2CC2)cc1 |
| 206 °C | CO/C(=C\C=C\c1cc2ccccc2o1)C(=O)O |
| 245 to 247 °C | NC(=O)Cn1c(-c2cccc(Cl)c2)nc2cccnc21 |
| 180 °C | O=C(O)C1=Cc2ccc(C(F)(F)F)cc2Oc2ccccc21 |
| 146 to 149 °C | Nc1ccc(Nc2cccc(O)c2)cc1 |
| > 268 °C | COCOc1ccc(-c2ncc3ncc(Cl)cc3n2)cc1 |
| 72 to 74 °C | CCOC(=O)/C=C(\c1cccc(C(F)(F)F)c1)c1ccc(OC)c(OC)c1 |
| 128 to 130 °C | COc1ccc(-c2cc3cc(F)c(F)cc3[nH]2)cc1NC(=S)Nc1cccnc1 |
| 269 to 271 °C | CN(C)c1ccc(-c2cc3nccnc3[nH]2)cc1CCC(=O)O |
| 154 to 156 °C | CCc1cc(-c2ccccc2OC)n2nc(Nc3ccc(N4CCN(C)CC4)cc3)ncc12 |
| 264 °C | O=C1c2cccc(O)c2C(=O)c2sc(-c3ccccc3)nc21 |
| 96 to 101 °C | CCCCc1nc2c(C)cccc2n1Cc1cc(C(=O)OC)no1 |
| 138 to 140 °C | CC#Cc1cc(C)nc(Nc2ccc(F)cc2)n1 |
| > 300 °C | CC(=O)Nc1nc(O)c2cc(C=Cc3ccc(C(=O)O)cc3)cnc2n1 |
| 250 to 251 °C | Cc1ccc(-c2ccc3c(c2)C=C(C(=O)Nc2ccc(CS(=O)(=O)C4CCCCC4)cc2)CCO3)cc1 |
| 331 to 340 °C | Cn1c2ccc(F)cc2c(=O)n2nc(C#N)cc12 |
| 300 to 302 °C | Cc1ccccc1-c1cc2cnc(N)nc2nc1N |
| 168 to 169 °C | O=C(NCCO)c1cccc(-c2ccc3c(n2)N(c2ccc(Cl)cc2Cl)CC3)c1 |
| 176 to 178 °C | COc1ccc(-c2nc(C)nn2-c2ccc(S(N)(=O)=O)cc2)cc1OC |

The remaining lines, values behind:

| Structure (SMILES) | melting point |
| --- | --- |
| CS(=O)c1cc(Cl)c(C=O)c(Cl)c1 (stereo not drawn) | 100 to 102 °C |
| CN(C(=O)c1cnc2c(C(F)(F)F)cccc2c1-c1ccccc1)c1ccccc1 | 188 to 190 °C |
| CCOC(=O)c1ccc(N2CCC(NCC(O)COc3cccc4[nH]c(=O)[nH]c34)CC2)nc1 (stereo not drawn) | 191 to 193 °C |
| O=C(CC(F)=C(F)F)Nc1ccc(S(=O)(=O)O)cc1 | > 300 °C |
| COCCCCCCCCCCCC(=O)Nc1cccc(C(=O)O)c1 | 169 to 171 °C |
| NC(=S)/C=C1\CCc2ccc(F)cc21 | 178 to 179 °C |
| CN1CCOC(CC23CC(c4ccccc42)c2ccccc23)C1 (stereo not drawn) | 136 to 137 °C |
| Fc1ccc(Cn2c(NC3CCN(CCNc4nc5cccnc5s4)CC3)nc3ccccc32)cc1 | 204 °C |
| COC(C#N)=CC1C(C(=O)O)C1(C)C (stereo not drawn) | 110 °C |
| CN(C)CCSC1=Nc2ccc(Br)cc2C(c2ccccc2F)=NC1 | 105 to 108 °C |
| C=CCOc1cc(N2C(=O)C3=C(CCCC3)C2=O)ccc1Cl | 118 to 120 °C |
| COC(=O)/C=C/[C@H](O)[C@H](Cc1ccccc1)NC(=O)OC(C)(C)C | 108 to 109 °C |
| CC1(C)NC(=O)CN1C(=O)CBr | 137 to 138 °C |
| C=C(C)c1ccc(C(=O)C2=C(O)C(=O)N(c3ccc(C)nn3)C2c2ccc(OC(F)(F)F)cc2)cc1 (stereo not drawn) | 253 °C |
| C=C(C(=O)O)c1cc(-c2cc3c(cc2C)C(C)(C)CCC3(C)C)ccc1OCCC | 125 to 126 °C |
| O=C(O)C1CC1(C(=O)O)c1cccc([N+](=O)[O-])c1 (stereo not drawn) | 167 to 170 °C |
| COC(=O)CC(CCc1ccc(C)cc1)NC(C)=O (stereo not drawn) | 50 to 51 °C |
| CCCn1nnn(-c2cc(O)c(F)cc2F)c1=O | 65 to 67 °C |
| CC(=O)Nc1cc(N)c(F)cc1Cl | 176 to 178 °C |

| Structure (SMILES) | melting point |
| --- | --- |
| CC(=O)Nc1ccc2c(c1)S(=O)(=O)NCN2C1CC1 | 230 to 232 °C |
| CCOC(=O)c1cn(CC)c2c(F)c(F)c(F)c(F)c2c1=O | 217 to 220 °C |
| COC(=O)C(C)Oc1cccc2c1c(C(=O)C(N)=O)c(C)n2Cc1ccccc1 (stereo not drawn) | 175 °C |
| CCCCC[C@H]1CC[C@H](CCCOc2ccc(O)cc2)CC1 | 100 to 101 °C |
| c1ccc(-c2nc3c([nH]2)CCCC3CN2CCN(c3ncccn3)CC2)cc1 (stereo not drawn) | 200 to 202 °C |
| CCOc1cc(Cc2cnc(N)nc2N)cc2c1OC(C)(C)C=C2CO | 187 to 189 °C |
| CNCC(O)c1cc(C)oc1C (stereo not drawn) | 76 to 77 °C |
| Cc1ccc(C(F)(F)F)cc1-c1ccc(S(=O)(=O)N2c3ccccc3CC2C(=O)NCCOc2ccc(CC(=O)O)cc2)cc1 (stereo not drawn) | 80 to 84 °C |
| COc1c(C)oc2c(-n3c(=O)cc(C(F)(F)F)n(C)c3=O)c(F)cc(Cl)c12 | 57 to 60 °C |
| COC(=O)CN1C(=S)CN=C(c2ccccc2Cl)c2cc(Cl)ccc21 | 191 to 192 °C |
| NC(Cc1ccccc1F)=NO | 85 to 87 °C |
| CNC(=O)c1ccc(Cl)nc1 | 150 to 154 °C |
| O=C(CC(=O)C(F)(F)Cl)c1ccc(Cl)cc1 | 50 to 51 °C |
| CCCOc1ccc(S(=O)(=O)NCCN(C)C)cc1-c1nc2cc3nc[nH]c3cc2c(=O)[nH]1 | 212 to 214 °C |
| CON1CCC2(CC1)NC(=O)C(c1cc(Br)c(F)cc1C)=C2O | 229 to 230 °C |
| CCOC(=O)c1nnc2n1-c1ccccc1C(c1ccccc1Cl)=NC2 | 235 to 237 °C |
| COc1c(O)cnc(CNc2nc(C)nc(C)c2Cl)c1C | 220 to 224 °C |
| O=C1CCC(N2Cc3c(CNC(=O)Nc4ccc(Cl)cc4)cccc3C2=O)C(=O)N1 (stereo not drawn) | > 260 °C |
| CCc1ncnc(N[C@H]2CC[C@@H](C#N)CC2)c1Cl | 131 to 132 °C |

| Structure (SMILES) | melting point |
| --- | --- |
| CCc1cn(C2OC(CN=[N+]=[N-])C(O)C2F)c(=O)[nH]c1=O (stereo not drawn) | 185 to 188 °C |
| CC1(C)OC(=O)C(=CC2CC2)C(=O)O1 | 91 to 92 °C |
| ClCCCc1ccc(OCc2ccccc2)cc1 | 34 to 35 °C |
| NCc1ccccc1C(=O)N[C@H]1CN(S(=O)(=O)O)C1=O | 162 to 165 °C |
| CNC(=O)CC1CSc2c(C(=O)OC(C)C)ccn21 (stereo not drawn) | 117 to 119 °C |
| CCOC(=O)C1=C(C)NC(C=NN)=C(C(=O)OCC)C1c1ccccc1Cl (stereo not drawn) | 107 to 110 °C |
| c1ccc(CN(Cc2ccccc2)OCCCCCCCCON(Cc2ccccc2)Cc2ccccc2)cc1 | 49 to 51 °C |
| OC12N=C(CSCc3ccccc3)SC1Cc1cc(Cl)ccc12 (stereo not drawn) | 102 to 104 °C |
| C#Cc1cc2c(=O)nc(CCCC)[nH]c2cc1F | 218 °C |
| CCC(C)(C)c1ccc(OCCCNC(=O)c2cc(OCCS(=O)(=O)CC)c3ccccc3c2O)c(C(C)(C)CC)c1 | 155 to 157 °C |
| CCCCCCCCCCCCCCCCC(=O)n1cc(F)c(=O)[nH]c1=O | 102 °C |
| COc1ccc(F)cc1NC(=O)Nc1ccc(N2CCN(C(=O)Nc3ccc(OCCO)cc3C(F)(F)F)CC2)cc1 | 140 to 141 °C |
| OC1CC2(CCCC2)Oc2ccc(Br)cc21 (stereo not drawn) | 123 to 124 °C |
| C=CCN(CC=C)c1nc(N(CC=C)CC=C)nc(N2CCN(C(=O)NC(c3ccccc3)c3ccccc3)CC2)n1 | 158 to 159 °C |
| CC1=C(C)C(=O)N(C(=O)NCCc2ccc(S(=O)(=O)NC(=O)NC3CCCCC3)cc2)C1 | 189 to 190 °C |
| O=C(C=Cc1ccccc1)C(Cc1ccccc1)C(=O)C=Cc1ccccc1 (stereo not drawn) | 156 to 158 °C |
| C=CCN1CCC23CCCCC2C1Cc1ccc(O)cc13 (stereo not drawn) | 197 to 198 °C |
| NC(=O)N(c1ccccc1-c1nc(C2CC2)no1)C1CN2CCC1CC2 (stereo not drawn) | 229 to 233 °C |
